Drawing on patent US9822130B2, “Triazolo-pyrazinyl derivatives useful as soluble guanylate cyclase activators” (Merck Sharp & Dohme Corp., priority 2014, dated 2017), this text covers EC50 and Emax for 20 compounds.

Molecules are shown by their SMILES.

In one test the target is T1, sGC α1/β1 heterodimer stably expressed in CHO-K1 cell line (CHO-K1/sGC) (Homo sapiens, UniProt Q02108+Q02153).
T1 construct: expressed in transfected cells
T1 sequence (Q02108 1-690): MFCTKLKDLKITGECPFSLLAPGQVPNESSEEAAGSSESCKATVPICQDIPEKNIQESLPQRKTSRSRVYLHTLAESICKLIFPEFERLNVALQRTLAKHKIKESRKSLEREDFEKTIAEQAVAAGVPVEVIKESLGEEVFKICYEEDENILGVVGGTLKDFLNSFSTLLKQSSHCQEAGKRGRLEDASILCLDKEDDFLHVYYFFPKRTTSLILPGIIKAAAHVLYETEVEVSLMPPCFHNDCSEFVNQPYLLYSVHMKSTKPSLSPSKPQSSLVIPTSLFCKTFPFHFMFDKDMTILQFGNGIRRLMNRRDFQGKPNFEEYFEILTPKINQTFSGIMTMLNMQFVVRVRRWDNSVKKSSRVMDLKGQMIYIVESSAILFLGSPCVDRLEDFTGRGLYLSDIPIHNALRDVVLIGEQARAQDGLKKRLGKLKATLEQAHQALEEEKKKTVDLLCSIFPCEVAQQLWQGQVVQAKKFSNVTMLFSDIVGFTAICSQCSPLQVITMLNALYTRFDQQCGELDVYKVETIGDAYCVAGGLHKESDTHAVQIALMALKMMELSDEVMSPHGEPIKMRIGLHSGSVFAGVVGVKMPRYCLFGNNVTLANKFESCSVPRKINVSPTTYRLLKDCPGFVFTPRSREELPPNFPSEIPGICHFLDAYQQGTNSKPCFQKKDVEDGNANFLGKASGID
T1 sequence (Q02153 1-619): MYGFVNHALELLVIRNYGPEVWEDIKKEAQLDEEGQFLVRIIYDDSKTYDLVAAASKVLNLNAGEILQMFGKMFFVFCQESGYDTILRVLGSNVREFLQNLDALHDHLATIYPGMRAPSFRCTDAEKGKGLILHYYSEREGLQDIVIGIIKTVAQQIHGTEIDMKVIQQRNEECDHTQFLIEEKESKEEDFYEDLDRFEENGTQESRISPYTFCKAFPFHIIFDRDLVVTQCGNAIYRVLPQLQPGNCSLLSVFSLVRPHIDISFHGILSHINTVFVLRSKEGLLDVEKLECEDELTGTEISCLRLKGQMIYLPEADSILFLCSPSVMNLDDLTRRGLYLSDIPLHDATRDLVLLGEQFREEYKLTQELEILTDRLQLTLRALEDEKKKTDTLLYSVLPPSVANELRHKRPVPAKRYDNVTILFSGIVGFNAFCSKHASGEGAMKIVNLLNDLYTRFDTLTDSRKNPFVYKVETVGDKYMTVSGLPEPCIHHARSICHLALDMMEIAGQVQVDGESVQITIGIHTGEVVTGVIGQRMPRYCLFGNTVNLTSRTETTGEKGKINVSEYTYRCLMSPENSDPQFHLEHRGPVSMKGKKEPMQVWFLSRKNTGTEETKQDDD
Description: Cell-based sGC Functional Assay (CASA Assay), cGMP generation. Conditions: CHO-K1/sGC cells, 1 hr at 37° C., cGMP by HTRF, 4P fit; presence or absence of 1 μM DETA-NO not given; read-out: IP (nM) (inflection point). The gist of the method: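 Readout is HTRF cGMP in lysates, normalised to the maximal response of reference sGC activator Compound A (100%), with a 4P fit giving IP and fold induction. Cells were CHO-K1/sGC (human α1/β1) in EBSS buffer with IBMX, incubated 1 hr at 37° C with compound. Run with and without 1 μM DETA-NO; final DMSO 2.5%.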
`CC1(c2ccc(Cl)cc2)C(=O)Nc2nc(-c3cn4ncnc4c(CCCC(F)(F)F)n3)nc(O)c21` (stereo not shown) [Example 142A, 5-(4-chlorophenyl)-4-hydroxy-5-methyl-2-(8-(4,4,4-trifluorobutyl)-[1,2,4]triazolo[1,5-a]pyrazin-6-yl)-5H-pyrrolo[2,3-d]pyrimidin-6(7H)-one]: the EC50 worked out at 207 nM.

On to `CC1(c2ccccc2)C(=O)Nc2nc(-c3cn4ncnc4c(CCCC(F)(F)F)n3)nc(O)c21` (stereo not shown) [Example 143B, 4-hydroxy-5-methyl-5-phenyl-2-(8-(4,4,4-trifluorobutyl)-[1,2,4]triazolo[1,5-a]pyrazin-6-yl)-5H-pyrrolo[2,3-d]pyrimidin-6(7H)-one], for which the EC50 is 301 nM.

As for `O=C1Nc2nc(-c3cn4ncnc4c(CCCC(F)(F)F)n3)nc(O)c2C1(c1ccc(C(F)(F)F)cc1)C1CC1` (stereo not shown) [Example 144A, 5-cyclopropyl-4-hydroxy-2-(8-(4,4,4-trifluorobutyl)-[1,2,4]triazolo[1,5-a]pyrazin-6-yl)-5-(4-(trifluoromethyl)phenyl)-5H-pyrrolo[2,3-d]pyrimidin-6(7H)-one], the EC50 stood at 1300 nM.

For `CC1(c2ccccn2)C(=O)Nc2nc(-c3cn4ncnc4c(CCCC(F)(F)F)n3)nc(O)c21` (stereo not shown) [Example 145B, 4-hydroxy-5-methyl-5-(pyridin-2-yl)-2-(8-(4,4,4-trifluorobutyl)-[1,2,4]triazolo[1,5-a]pyrazin-6-yl)-5H-pyrrolo[2,3-d]pyrimidin-6(7H)-one], the EC50 was 1220 nM.

Take `CC1(c2ccc(F)c(F)c2)C(=O)Nc2nc(-c3cn4ncnc4c(CCCC(F)(F)F)n3)nc(O)c21` (stereo not shown) [Example 146B, 5-(3,4-difluorophenyl)-4-hydroxy-5-methyl-2-(8-(4,4,4-trifluorobutyl)-[1,2,4]triazolo[1,5-a]pyrazin-6-yl)-5H-pyrrolo[2,3-d]pyrimidin-6(7H)-one]: the EC50 is 45.5 nM.

Consider `CC1(c2ccc(F)c(Cl)c2)C(=O)Nc2nc(-c3cn4ncnc4c(CCCC(F)(F)F)n3)nc(O)c21` (stereo not shown) [Example 147B, 5-(3-chloro-4-fluorophenyl)-4-hydroxy-5-methyl-2-(8-(4,4,4-trifluorobutyl)-[1,2,4]triazolo[1,5-a]pyrazin-6-yl)-5,7-dihydro-6H-pyrrolo[2,3-d]pyrimidin-6-one], for which the EC50 is 214 nM.

On to `COc1ccc(C2(C)C(=O)Nc3nc(-c4cn5ncnc5c(CCCC(F)(F)F)n4)nc(O)c32)nc1` (stereo not shown) [Example 148A, 4-hydroxy-5-(5-methoxypyridin-2-yl)-5-methyl-2-(8-(4,4,4-trifluorobutyl)-[1,2,4]triazolo[1,5-a]pyrazin-6-yl)-5H-pyrrolo[2,3-d]pyrimidin-6(7H)-one], for which the EC50 was 1090 nM.

Turning to `Cc1ccc(C2(C)C(=O)Nc3nc(-c4cn5ncnc5c(CCCC(F)(F)F)n4)nc(O)c32)nc1` (stereo not shown) [Example 149B, 4-hydroxy-5-methyl-5-(5-methylpyridin-2-yl)-2-(8-(4,4,4-trifluorobutyl)-[1,2,4]triazolo[1,5-a]pyrazin-6-yl)-5H-pyrrolo[2,3-d]pyrimidin-6(7H)-one], the EC50 came out at 990 nM.

As for `O=C1Nc2nc(-c3cn4ncnc4c(CCCC(F)(F)F)n3)nc(O)c2C1(c1ccc(F)cn1)C1CC1` (stereo not shown) [Example 150A, 5-cyclopropyl-5-(5-fluoropyridin-2-yl)-4-hydroxy-2-(8-(4,4,4-trifluorobutyl)-[1,2,4]triazolo[1,5-a]pyrazin-6-yl)-5,7-dihydro-6H-pyrrolo[2,3-d]pyrimidin-6-one], the EC50 amounted to 1220 nM.

For the compound `C[C@@]1(c2ccc(F)cc2)C(=O)Nc2nc(-c3cn4ncnc4c(CCC(F)(F)F)n3)nc(O)c21` [Example 151A, (S)-5-(4-fluorophenyl)-4-hydroxy-5-methyl-2-(8-(3,3,3-trifluoropropyl)-[1,2,4]triazolo[1,5-a]pyrazin-6-yl)-5,7-dihydro-6H-pyrrolo[2,3-d]pyrimidin-6-one], the EC50 came out at 1490 nM.

Regarding `CC1(c2ccc(Cl)cc2)C(=O)Nc2nc(-c3cn4ncnc4c(CCC(F)(F)F)n3)nc(O)c21` (stereo not shown) [Example 152A, 5-(4-chlorophenyl)-4-hydroxy-5-methyl-2-(8-(3,3,3-trifluoropropyl)-[1,2,4]triazolo[1,5-a]pyrazin-6-yl)-5H-pyrrolo[2,3-d]pyrimidin-6(7H)-one], the EC50 worked out at 133 nM.

Regarding `CC1(c2ccc(Cl)c(F)c2)C(=O)Nc2nc(-c3cn4ncnc4c(CCC(F)(F)F)n3)nc(O)c21` (stereo not shown) [Example 153B, 5-(4-chloro-3-fluorophenyl)-4-hydroxy-5-methyl-2-(8-(3,3,3-trifluoropropyl)-[1,2,4]triazolo[1,5-a]pyrazin-6-yl)-5H-pyrrolo[2,3-d]pyrimidin-6(7H)-one], the EC50 worked out at 310 nM.

With `CCCCc1nc(-c2nc(O)c3c(n2)NC(=O)[C@@]3(C)c2ccc(F)cc2)cn2ncnc12` [Example 154A, (S)-2-(8-butyl-[1,2,4]triazolo[1,5-a]pyrazin-6-yl)-5-(4-fluorophenyl)-4-hydroxy-5-methyl-5,7-dihydro-6H-pyrrolo[2,3-d]pyrimidin-6-one], the EC50 turned out to be 27.2 nM.

With `CCCCc1nc(-c2nc(O)c3c(n2)NC(=O)C3(C)c2ccc(F)cn2)cn2ncnc12` (stereo not shown) [Example 155B, 2-(8-butyl-[1,2,4]triazolo[1,5-a]pyrazin-6-yl)-5-(5-fluoropyridin-2-yl)-4-hydroxy-5-methyl-5H-pyrrolo[2,3-d] pyrimidin-6(7H)-one], the EC50 is 163 nM.

Take `CCCCc1nc(-c2nc(O)c3c(n2)NC(=O)C3(C)c2ccc(Cl)c(F)c2)cn2ncnc12` (stereo not shown) [Example 156B, 2-(8-butyl-[1,2,4]triazolo[1,5-a]pyrazin-6-yl)-5-(4-chloro-3-fluorophenyl)-4-hydroxy-5-methyl-5H-pyrrolo[2,3-d] pyrimidin-6(7H)-one]: the EC50 was 23.3 nM.

In the case of `CCCCc1nc(-c2nc(O)c3c(n2)NC(=O)C3(C)c2ccc(Cl)cc2)cn2ncnc12` (stereo not shown) [Example 157A, 2-(8-butyl-[1,2,4]triazolo[1,5-a]pyrazin-6-yl)-5-(4-chlorophenyl)-4-hydroxy-5-methyl-5H-pyrrolo[2,3-d]pyrimidin-6(7H)-one], the EC50 was determined as 72.7 nM.

For `CCCCc1nc(-c2nc(O)c3c(n2)NC(=O)C3(C)c2ccc(F)c(F)c2)cn2ncnc12` (stereo not shown) [Example 158B, 2-(8-butyl-[1,2,4]triazolo[1,5-a]pyrazin-6-yl)-5-(3,4-difluorophenyl)-4-hydroxy-5-methyl-5H-pyrrolo[2,3-d]pyrimidin-6(7H)-one], the EC50 stood at 102 nM.

In the case of `CCCCc1nc(-c2nc(O)c3c(n2)NC(=O)C3(C)c2ccc(C(F)(F)F)cn2)cn2ncnc12` (stereo not shown) [Example 159B, 2-(8-butyl-[1,2,4]triazolo[1,5-a]pyrazin-6-yl)-4-hydroxy-5-methyl-5-(5-(trifluoromethyl)pyridin-2-yl)-5H-pyrrolo[2,3-d]pyrimidin-6(7H)-one], the EC50 amounted to 209 nM.

For the compound `CCCCc1nc(-c2nc(O)c3c(n2)NC(=O)C3(C)c2ccc(Cl)cn2)cn2ncnc12` (stereo not shown) [Example 160A, 2-(8-butyl-[1,2,4]triazolo[1,5-a]pyrazin-6-yl)-5-(5-chloropyridin-2-yl)-4-hydroxy-5-methyl-5H-pyrrolo[2,3-d]pyrimidin-6(7H)-one], the EC50 was determined as 50.2 nM.

Turning to `CCCCc1nc(-c2nc(O)c3c(n2)NC(=O)C3(C)c2ccc(C)cn2)cn2ncnc12` (stereo not shown) [Example 161B, 2-(8-butyl-[1,2,4]triazolo[1,5-a]pyrazin-6-yl)-4-hydroxy-5-methyl-5-(5-methylpyridin-2-yl)-5H-pyrrolo[2,3-d]pyrimidin-6(7H)-one], the EC50 turned out to be 303 nM.

The same test, now with this note: CHO-K1/sGC cells, 1 hr at 37° C., cGMP by HTRF; presence or absence of 1 μM DETA-NO not given; read-out: % Act. (percent activation relative to maximum cGMP production of Compound A = 100%).
For the compound `CC1(c2ccc(Cl)cc2)C(=O)Nc2nc(-c3cn4ncnc4c(CCC(F)(F)F)n3)nc(O)c21` (stereo not shown) [Example 152A, 5-(4-chlorophenyl)-4-hydroxy-5-methyl-2-(8-(3,3,3-trifluoropropyl)-[1,2,4]triazolo[1,5-a]pyrazin-6-yl)-5H-pyrrolo[2,3-d]pyrimidin-6(7H)-one], the Emax was 70%.

Consider `CCCCc1nc(-c2nc(O)c3c(n2)NC(=O)[C@@]3(C)c2ccc(F)cc2)cn2ncnc12` [Example 154A, (S)-2-(8-butyl-[1,2,4]triazolo[1,5-a]pyrazin-6-yl)-5-(4-fluorophenyl)-4-hydroxy-5-methyl-5,7-dihydro-6H-pyrrolo[2,3-d]pyrimidin-6-one], for which the Emax is 100%.
